Entries after “also recorded” stand apart in the source; their conditions may differ.
Test system: patients with advanced solid tumors
Experiment: Phase I safety and tolerability
Assay type: in vivo, human
[1] = Cohort 3 (N=3), 40 mg BID 10 days + carboplatin
[2] = Cohort 3: 40 mg BID days 4–13 (10 days) + carboplatin AUC5, 3 patients
[3] = Cohort 4 (N=3), 40 mg BID 7 days + carboplatin
[4] = Cohort 4: 40 mg BID days 4–10 (7 days) + carboplatin AUC5, 3 patients
[5] = Cohort 5 (N=8), 60 mg QD 7 days + carboplatin

## C[C@@H]1COCCN1c1cc(C2([S@](C)(=N)=O)CC2)nc(-c2cc[nH]c3nccc2-3)n1 [ceralasertib]
[1]
  TEAE Anemia, Grade ≥3: 0 patients, n (%)
  TEAE Any AE, Grade 1–2: 1 (33) patients, n (%)
  TEAE Any AE, Grade ≥3: 2 (67) patients, n (%)
  TEAE Arthralgia, Grade 1–2: 0 patients, n (%)
  TEAE Arthralgia, Grade ≥3: 0 patients, n (%)
  TEAE Aspartate aminotransferase increased, Grade 1–2: 0 patients, n (%)
  TEAE Aspartate aminotransferase increased, Grade ≥3: 0 patients, n (%)
  TEAE Constipation, Grade 1–2: 1 (33) patients, n (%)
  TEAE Constipation, Grade ≥3: 0 patients, n (%)
  TEAE Contusion, Grade 1–2: 2 (67) patients, n (%)
  TEAE Contusion, Grade ≥3: 0 patients, n (%)
  TEAE Cough, Grade 1–2: 0 patients, n (%)
  TEAE Cough, Grade ≥3: 0 patients, n (%)
  TEAE Decreased appetite, Grade 1–2: 1 (33) patients, n (%)
  TEAE Decreased appetite, Grade ≥3: 0 patients, n (%)
  TEAE Diarrhea, Grade 1–2: 0 patients, n (%)
  TEAE Diarrhea, Grade ≥3: 0 patients, n (%)
  TEAE Dizziness, Grade 1–2: 0 patients, n (%)
  TEAE Dizziness, Grade ≥3: 0 patients, n (%)
  TEAE Dyspnea, Grade 1–2: 0 patients, n (%)
  TEAE Dyspnea, Grade ≥3: 0 patients, n (%)
  TEAE Fatigue, Grade 1–2: 1 (33) patients, n (%)
  TEAE Fatigue, Grade ≥3: 0 patients, n (%)
  TEAE Hypocalcemia, Grade 1–2: 0 patients, n (%)
  TEAE Hypocalcemia, Grade ≥3: 0 patients, n (%)
  TEAE Insomnia, Grade 1–2: 1 (33) patients, n (%)
  TEAE Insomnia, Grade ≥3: 0 patients, n (%)
  TEAE Lower respiratory tract infection, Grade 1–2: 0 patients, n (%)
  TEAE Lower respiratory tract infection, Grade ≥3: 0 patients, n (%)
  TEAE Nausea, Grade 1–2: 0 patients, n (%)
  TEAE Nausea, Grade ≥3: 0 patients, n (%)
  TEAE Neutropenia, Grade 1–2: 1 (33) patients, n (%)
  TEAE Neutropenia, Grade ≥3: 2 (67) patients, n (%)
  TEAE Neutrophil count decreased, Grade 1–2: 0 patients, n (%)
  TEAE Neutrophil count decreased, Grade ≥3: 0 patients, n (%)
  TEAE Platelet count decreased, Grade 1–2: 1 (33) patients, n (%)
  TEAE Platelet count decreased, Grade ≥3: 0 patients, n (%)
  TEAE Pyrexia, Grade 1–2: 0 patients, n (%)
  TEAE Pyrexia, Grade ≥3: 0 patients, n (%)
  TEAE Thrombocytopenia, Grade 1–2: 1 (33) patients, n (%)
  TEAE Thrombocytopenia, Grade ≥3: 2 (67) patients, n (%)
  TEAE Upper respiratory tract infection, Grade 1–2: 0 patients, n (%)
  TEAE Upper respiratory tract infection, Grade ≥3: 0 patients, n (%)
  TEAE Vomiting, Grade 1–2: 0 patients, n (%)
  TEAE Vomiting, Grade ≥3: 0 patients, n (%)
  TEAE White blood cell count decreased, Grade 1–2: 0 patients, n (%)
  TEAE White blood cell count decreased, Grade ≥3: 0 patients, n (%)
[2]
  Number of DLTs: no DLTs
  SRC decision (tolerability): declared intolerable; also recorded: Not tolerated
[3]
  TEAE Abdominal pain, Grade 1–2: 1 (33) patients, n (%)
  TEAE Abdominal pain, Grade ≥3: 0 patients, n (%)
  TEAE Alanine aminotransferase increased, Grade 1–2: 1 (33) patients, n (%)
  TEAE Alanine aminotransferase increased, Grade ≥3: 0 patients, n (%)
  TEAE Anemia, Grade 1–2: 1 (33) patients, n (%)
  TEAE Anemia, Grade ≥3: 1 (33) patients, n (%)
  TEAE Any AE, Grade 1–2: 0 patients, n (%)
  TEAE Any AE, Grade ≥3: 3 (100) patients, n (%)
  TEAE Arthralgia, Grade 1–2: 0 patients, n (%)
  TEAE Arthralgia, Grade ≥3: 0 patients, n (%)
  TEAE Aspartate aminotransferase increased, Grade 1–2: 0 patients, n (%)
  TEAE Aspartate aminotransferase increased, Grade ≥3: 0 patients, n (%)
  TEAE Constipation, Grade 1–2: 1 (33) patients, n (%)
  TEAE Constipation, Grade ≥3: 0 patients, n (%)
  TEAE Contusion, Grade 1–2: 0 patients, n (%)
  TEAE Contusion, Grade ≥3: 0 patients, n (%)
  TEAE Cough, Grade 1–2: 0 patients, n (%)
  TEAE Cough, Grade ≥3: 0 patients, n (%)
  TEAE Decreased appetite, Grade 1–2: 1 (33) patients, n (%)
  TEAE Decreased appetite, Grade ≥3: 0 patients, n (%)
  TEAE Diarrhea, Grade 1–2: 0 patients, n (%)
  TEAE Diarrhea, Grade ≥3: 0 patients, n (%)
  TEAE Dizziness, Grade 1–2: 1 (33) patients, n (%)
  TEAE Dizziness, Grade ≥3: 0 patients, n (%)
  TEAE Dyspnea, Grade 1–2: 0 patients, n (%)
  TEAE Dyspnea, Grade ≥3: 0 patients, n (%)
  TEAE Fatigue, Grade 1–2: 1 (33) patients, n (%)
  TEAE Fatigue, Grade ≥3: 0 patients, n (%)
  TEAE Hypocalcemia, Grade 1–2: 0 patients, n (%)
  TEAE Hypocalcemia, Grade ≥3: 0 patients, n (%)
  TEAE Insomnia, Grade 1–2: 0 patients, n (%)
  TEAE Insomnia, Grade ≥3: 0 patients, n (%)
  TEAE Lower respiratory tract infection, Grade 1–2: 0 patients, n (%)
  TEAE Lower respiratory tract infection, Grade ≥3: 0 patients, n (%)
  TEAE Nausea, Grade 1–2: 2 (67) patients, n (%)
  TEAE Nausea, Grade ≥3: 0 patients, n (%)
  TEAE Neutropenia, Grade 1–2: 1 (33) patients, n (%)
  TEAE Neutropenia, Grade ≥3: 1 (33) patients, n (%)
  TEAE Neutrophil count decreased, Grade 1–2: 0 patients, n (%)
  TEAE Neutrophil count decreased, Grade ≥3: 1 (33) patients, n (%)
  TEAE Platelet count decreased, Grade 1–2: 0 patients, n (%)
  TEAE Platelet count decreased, Grade ≥3: 0 patients, n (%)
  TEAE Pyrexia, Grade 1–2: 1 (33) patients, n (%)
  TEAE Pyrexia, Grade ≥3: 0 patients, n (%)
  TEAE Thrombocytopenia, Grade 1–2: 0 patients, n (%)
  TEAE Thrombocytopenia, Grade ≥3: 3 (100) patients, n (%)
  TEAE Upper respiratory tract infection, Grade 1–2: 0 patients, n (%)
  TEAE Upper respiratory tract infection, Grade ≥3: 0 patients, n (%)
  TEAE Vomiting, Grade 1–2: 0 patients, n (%)
  TEAE Vomiting, Grade ≥3: 0 patients, n (%)
  TEAE White blood cell count decreased, Grade 1–2: 0 patients, n (%)
  TEAE White blood cell count decreased, Grade ≥3: 1 (33) patients, n (%)
[4]
  Number of DLTs: a DLT of grade 4 thrombocytopenia and grade 3 neutropenia
  SRC decision (tolerability): declared intolerable; also recorded: Not tolerated
[5]
  TEAE Abdominal pain, Grade 1–2: 1 (13) patients, n (%)
  TEAE Abdominal pain, Grade ≥3: 0 patients, n (%)
  TEAE Alanine aminotransferase increased, Grade 1–2: 0 patients, n (%)
  TEAE Alanine aminotransferase increased, Grade ≥3: 1 (13) patients, n (%)
  TEAE Anemia, Grade 1–2: 3 (38) patients, n (%)
  TEAE Anemia, Grade ≥3: 3 (38) patients, n (%)
  TEAE Any AE, Grade 1–2: 4 (50) patients, n (%)
  TEAE Any AE, Grade ≥3: 4 (50) patients, n (%)

Reference: article PMC9401487 (Clinical Cancer Research, 2021)
